Measurements taken from patent publication US11759462B2, “Spirocyclic compounds as tryptophan hydroxylase inhibitors” (priority 2013, dated 2023).

Assays:
[1] = system: jejunal mucosal 5-HT in mice (C57 BL6); test: Intestinal 5-HT depletion assay (Example B, single 150 mg/kg oral dose); type: in vivo, mouse; conditions: one day after oral administration of a single 150 mg/kg dose, P-value class (ANOVA)
Summary of the method: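 C57 BL6 mice received one 150 mg/kg oral gavage dose; jejunal mucosa was homogenized in acidic trichloroacetic acid buffer and 5-HT measured by HPLC. Levels normalized to BCA protein, expressed as mean percent reduction versus vehicle ± SEM; ANOVA significance.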

[2] = system: jejunal mucosal 5-HT in mice (C57 BL6); test: Reduction of mucosal 5-HT concentrations (Example C, repeated oral dosing); type: in vivo, mouse; conditions: P-value class
Experimental: The efficacy of the TPH1 inhibitors of the invention was assessed for the ability to decrease intestinal serotonin concentration in mice. Mice (C57 BL6) were administered an oral dose of 10 or 50 mg/kg of the test article in the evening. […] Following an overnight fast, each animal was euthanized by exsanguination under isoflurane anesthesia. Jejunal intestinal mucosa was isolated and homogenized in […] of a buffer containing 0.3M trichloroacetic acid, 0.1M sodium acetate, 10 mM EDTA, 20 mM sodium bisulfate and 50 mM ascorbic acid. Following centrifugation the 5-HT levels in the supernatants were measured by HPLC. The remaining mucosal pellet was solubilized overnight at 37° C. in a 0.1% sodium dodecyl sulfate buffer in 0.1N NaOH followed by determination of protein concentrations using a BCA protein assay (Pierce, Rockford, Ill.). 5-HT levels were normalized to protein and data were expressed as mean percent reduction of mucosal 5-HT levels relative to vehicle control±SEM (percent 5-HT reduction). All animal studies were carried out with protocols approved by the Institutional Animal Care and Use Committee. P-values, indicating statistical significance of the data (ANOVA) are provided in the table: * refers to P<0.05,** refers to P<0.01, *** refers to P<0.005, and **** refers to P<0.0005.

[3] = after three oral doses (first 10 or 50 mg/kg, then two doses of 50 mg/kg) (title)

## CCOC(=O)c1ccc(-c2ccc(-n3ccc(C)n3)c([C@@H](Oc3cc(N4CCC5(CC4)CN[C@H](C(=O)OCC)C5)nc(N)n3)C(F)(F)F)c2)cc1 [Example 63dc, (S)-ethyl 8-(2-amino-6-((R)-1-(4′-(ethoxycarbonyl)-4-(3-methyl-1H-pyrazol-1-yl)-[1,1′-biphenyl]-3-yl)-2,2,2-trifluoroethoxy)pyrimidin-4-yl)-2,8-diazaspiro[4.5]decane-3-carboxylate]
[1]
  Efficacy (statistical significance of reduction of mucosal 5-HT concentrations relative to vehicle): *** (*** refers to P<0.005)
[2]; [3]
  Efficacy (statistical significance of reduction of mucosal 5-HT concentrations relative to vehicle): *** (*** refers to P<0.005)

## CCOC(=O)[C@@H]1CC2(CCN(c3cc(O[C@H](c4cc(-c5ccc(C)c(C)c5)ccc4-n4ccc(C)n4)C(F)(F)F)nc(N)n3)CC2)CN1 [Example 63bn, (S)-ethyl 8-(2-amino-6-((R)-1-(3′,4′-dimethyl-4-(3-methyl-1H-pyrazol-1-yl)-[1,1′-biphenyl]-3-yl)-2,2,2-trifluoroethoxy)pyrimidin-4-yl)-2,8-diazaspiro[4.5]decane-3-carboxylate]
[1]
  Efficacy (statistical significance of reduction of mucosal 5-HT concentrations relative to vehicle): **** (and refers to P<0.0005)
[2]; [3]
  Efficacy (statistical significance of reduction of mucosal 5-HT concentrations relative to vehicle): **** (**** refers to P<0.0005)

## CCOC(=O)[C@@H]1CC2(CCN(c3cc(O[C@H](c4ccc(-c5ccc6ncccc6c5)cc4)C(F)(F)F)nc(N)n3)CC2)CN1 [Example 63cl, (S)-ethyl 8-(2-amino-6-((R)-2,2,2-trifluoro-1-(4-(quinolin-6-yl)phenyl)ethoxy)pyrimidin-4-yl)-2,8-diazaspiro[4.5]decane-3-carboxylate]
[1]
  Efficacy (statistical significance of reduction of mucosal 5-HT concentrations relative to vehicle): *** (*** refers to P<0.005)
[2]; (title)
  Efficacy (statistical significance of reduction of mucosal 5-HT concentrations relative to vehicle): *** (*** refers to P<0.005)

## CCCc1ccc([C@@H](Oc2cc(N3CCC4(CC3)CN[C@H](C(=O)OCC)C4)nc(N)n2)C(F)(F)F)c(-n2ccc(C)n2)c1 [Example 63bf, (S)-ethyl 8-(2-amino-6-((R)-2,2,2-trifluoro-1-(2-(3-methyl-1H-pyrazol-1-yl)-4-propylphenyl)ethoxy)pyrimidin-4-yl)-2,8-diazaspiro[4.5]decane-3-carboxylate]
[1]
  Efficacy (statistical significance of reduction of mucosal 5-HT concentrations relative to vehicle): **** (and refers to P<0.0005)
[2]; [3]
  Efficacy (statistical significance of reduction of mucosal 5-HT concentrations relative to vehicle): *** (*** refers to P<0.005)

## CCOC(=O)[C@@H]1CC2(CCN(c3cc(O[C@H](c4ccc(Cl)cc4-n4ccc(C)n4)C(F)(F)F)nc(N)n3)CC2)CN1 [Example 63az, (S)-ethyl 8-(2-amino-6-((R)-1-(4-chloro-2-(3-methyl-1H-pyrazol-1-yl)phenyl)-2,2,2-trifluoroethoxy)pyrimidin-4-yl)-2,8-diazaspiro[4.5]decane-3-carboxylate]
[1]
  Efficacy (statistical significance of reduction of mucosal 5-HT concentrations relative to vehicle): *** (*** refers to P<0.005)
[2]; [3]
  Efficacy (statistical significance of reduction of mucosal 5-HT concentrations relative to vehicle): *** (*** refers to P<0.005)

## CCCCc1ccc([C@@H](Oc2cc(N3CCC4(CC3)CN[C@H](C(=O)OCC)C4)nc(N)n2)C(F)(F)F)c(-n2ccc(C)n2)c1 [Example 63bg, (S)-ethyl 8-(2-amino-6-((R)-1-(4-butyl-2-(3-methyl-1H-pyrazol-1-yl)phenyl)-2,2,2-trifluoroethoxy)pyrimidin-4-yl)-2,8-diazaspiro[4.5]decane-3-carboxylate]
[1]
  Efficacy (statistical significance of reduction of mucosal 5-HT concentrations relative to vehicle): **** (and refers to P<0.0005)
[2]; [3]
  Efficacy (statistical significance of reduction of mucosal 5-HT concentrations relative to vehicle): *** (*** refers to P<0.005)

## CCOC(=O)[C@@H]1CC2(CCN(c3cc(O[C@H](c4ccc(Cl)cc4-c4cccc(C(F)(F)F)c4)C(F)(F)F)nc(N)n3)CC2)CN1 [Example 63ar, (S)-ethyl 8-(2-amino-6-((R)-1-(5-chloro-3′-(trifluoromethyl)-[1,1′-biphenyl]-2-yl)-2,2,2-trifluoroethoxy)pyrimidin-4-yl)-2,8-diazaspiro[4.5]decane-3-carboxylate]
[2]; [3]
  Efficacy (statistical significance of reduction of mucosal 5-HT concentrations relative to vehicle): **** (**** refers to P<0.0005)

## CCCc1ccc(-n2ccc(C)n2)c([C@@H](Oc2cc(N3CCC4(CC3)CN[C@H](C(=O)OCC)C4)nc(N)n2)C(F)(F)F)c1 [Example 63bo, (S)-ethyl 8-(2-amino-6-((R)-2,2,2-trifluoro-1-(2-(3-methyl-1H-pyrazol-1-yl)-5-propylphenyl)ethoxy)pyrimidin-4-yl)-2,8-diazaspiro[4.5]decane-3-carboxylate]
[1]
  Efficacy (statistical significance of reduction of mucosal 5-HT concentrations relative to vehicle): **** (and refers to P<0.0005)
[2]; [3]
  Efficacy (statistical significance of reduction of mucosal 5-HT concentrations relative to vehicle): *** (*** refers to P<0.005)

## CCOC(=O)[C@@H]1CC2(CCN(c3cc(O[C@H](c4ccc(Cl)cc4-c4cccnc4)C(F)(F)F)nc(N)n3)CC2)CN1 [Example 63fo, (S)-ethyl 8-(2-amino-6-((R)-1-(4-chloro-2-(pyridin-3-yl)phenyl)-2,2,2-trifluoroethoxy)pyrimidin-4-yl)-2,8-diazaspiro[4.5]decane-3-carboxylate]
[2]; [3]
  Efficacy (statistical significance of reduction of mucosal 5-HT concentrations relative to vehicle): * (* refers to P<0.05)

## CCOC(=O)[C@@H]1CC2(CCN(c3cc(O[C@H](c4ccc(Cl)cc4-c4cccc(S(N)(=O)=O)c4)C(F)(F)F)nc(N)n3)CC2)CN1 [Example 63ch, (S)-ethyl 8-(2-amino-6-((R)-1-(5-chloro-3′-sulfamoyl-[1,1′-biphenyl]-2-yl)-2,2,2-trifluoroethoxy)pyrimidin-4-yl)-2,8-diazaspiro[4.5]decane-3-carboxylate]
[1]
  Efficacy (statistical significance of reduction of mucosal 5-HT concentrations relative to vehicle): *** (*** refers to P<0.005)
[2]; [3]
  Efficacy (statistical significance of reduction of mucosal 5-HT concentrations relative to vehicle): *** (*** refers to P<0.005)

## CCOC(=O)[C@@H]1CC2(CCN(c3cc(O[C@H](c4ccc(-c5ccc(C)c(C)c5)cc4-n4ccc(C)n4)C(F)(F)F)nc(N)n3)CC2)CN1 [Example 63bd, (S)-ethyl 8-(2-amino-6-((R)-1-(3′,4′-dimethyl-3-(3-methyl-1H-pyrazol-1-yl)-[1,1′-biphenyl]-4-yl)-2,2,2-trifluoroethoxy)pyrimidin-4-yl)-2,8-diazaspiro[4.5]decane-3-carboxylate]
[1]
  Efficacy (statistical significance of reduction of mucosal 5-HT concentrations relative to vehicle): *** (*** refers to P<0.005)
[2]; [3]
  Efficacy (statistical significance of reduction of mucosal 5-HT concentrations relative to vehicle): *** (*** refers to P<0.005)

## CCOC(=O)[C@@H]1CC2(CCN(c3cc(O[C@H](c4cc(CC)ccc4-n4ccc(C)n4)C(F)(F)F)nc(N)n3)CC2)CN1 [Example 63bp, (S)-ethyl 8-(2-amino-6-((R)-1-(5-ethyl-2-(3-methyl-1H-pyrazol-1-yl)phenyl)-2,2,2-trifluoroethoxy)pyrimidin-4-yl)-2,8-diazaspiro[4.5]decane-3-carboxylate]
[1]
  Efficacy (statistical significance of reduction of mucosal 5-HT concentrations relative to vehicle): **** (and refers to P<0.0005)
[2]; [3]
  Efficacy (statistical significance of reduction of mucosal 5-HT concentrations relative to vehicle): *** (*** refers to P<0.005)

## CCOC(=O)[C@@H]1CC2(CCN(c3cc(O[C@H](c4ccc(Cl)cc4-c4ccccc4)C(F)(F)F)nc(N)n3)CC2)CN1 [Example 63i, (S)-ethyl 8-(2-amino-6-((R)-1-(5-chloro-[1,1′-biphenyl]-2-yl)-2,2,2-trifluoroethoxy)pyrimidin-4-yl)-2,8-diazaspiro[4.5]decane-3-carboxylate]
[2]; [3]
  Efficacy (statistical significance of reduction of mucosal 5-HT concentrations relative to vehicle): *** (*** refers to P<0.005)

## CCOC(=O)[C@@H]1CC2(CCN(c3cc(O[C@H](c4ccc(Cl)cc4-c4cccc(C)c4)C(F)(F)F)nc(N)n3)CC2)CN1 [Example 63aq, (S)-ethyl 8-(2-amino-6-((R)-1-(5-chloro-3′-methyl-[1,1′-biphenyl]-2-yl)-2,2,2-trifluoroethoxy)pyrimidin-4-yl)-2,8-diazaspiro[4.5]decane-3-carboxylate]
[2]; [3]
  Efficacy (statistical significance of reduction of mucosal 5-HT concentrations relative to vehicle): *** (*** refers to P<0.005)

## CCOC(=O)[C@@H]1CC2(CCN(c3cc(O[C@H](c4ccc(Cl)cc4-c4cccc(S(C)(=O)=O)c4)C(F)(F)F)nc(N)n3)CC2)CN1 [Example 63cj, (S)-ethyl 8-(2-amino-6-((R)-1-(5-chloro-3′-(methylsulfonyl)-[1,1′-biphenyl]-2-yl)-2,2,2-trifluoroethoxy)pyrimidin-4-yl)-2,8-diazaspiro[4.5]decane-3-carboxylate]
[1]
  Efficacy (statistical significance of reduction of mucosal 5-HT concentrations relative to vehicle): *** (*** refers to P<0.005)
[2]; [3]
  Efficacy (statistical significance of reduction of mucosal 5-HT concentrations relative to vehicle): ** (** refers to P<0.01)

## CCOC(=O)[C@@H]1CC2(CCN(c3cc(O[C@H](c4ccc(Cl)cc4-c4cccc(C(C)(C)C)c4)C(F)(F)F)nc(N)n3)CC2)CN1 [Example 63el, (S)-ethyl 8-(2-amino-6-((R)-1-(3′-(tert-butyl)-5-chloro-[1,1 biphenyl]-2-yl)-2,2,2-trifluoroethoxy)pyrimidin-4-yl)-2,8-diazaspiro[4.5]decane-3-carboxylate]
[2]; [3]
  Efficacy (statistical significance of reduction of mucosal 5-HT concentrations relative to vehicle): *** (*** refers to P<0.005)

## CCCOC(=O)[C@@H]1CC2(CCN(c3cc(O[C@H](c4ccc(Cl)cc4-c4ccccc4)C(F)(F)F)nc(N)n3)CC2)CN1 [Example 69c, (S)-propyl 8-(2-amino-6-((R)-1-(5-chloro-[1,1′-biphenyl]-2-yl)-2,2,2-trifluoroethoxy)pyrimidin-4-yl)-2,8-diazaspiro[4.5]decane-3-carboxylate]
[2]; [3]
  Efficacy (statistical significance of reduction of mucosal 5-HT concentrations relative to vehicle): *** (*** refers to P<0.005)
